“And” between values parts separate entries of the source, which are not always exact repeats. Identical values can stand only once. Inconclusive results and toxic doses are left out.

Results on 27 compounds are retold here after PubChem BioAssay AID330 (DTP/NCI, 2004).

This assay concerns P388 leukemia ip, CD2F1 mice, survival T/C. The assay is described as follows: NCI In Vivo Anticancer Drug Screen. Data for tumor model P388 Leukemia (intraperitoneal) in CD2F1 (CDF1) mice. To be noted: endpoint: median survival time, higher = longer survival. An outline of the steps: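 Mice carrying the transplanted tumor received test compound or vehicle. Survival was recorded in each group, and the value is the treated-group measurement divided by that of the vehicle-treated control group.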

Where [1] appears, read: dose: 50.0 mg/kg/injection, schedule: Q01DX009 (ip), vehicle: Klucel (hydroxypropylcellulose) (HPC).
[2] abbreviates: dose: 100.0 mg/kg/injection, schedule: Q01DX009 (ip), vehicle: Klucel (hydroxypropylcellulose) (HPC).
Where [3] appears, read: dose: 200.0 mg/kg/injection, schedule: Q01DX009 (ip), vehicle: Klucel (hydroxypropylcellulose) (HPC).
The mark [4] stands for this setting: dose: 50.0 mg/kg/injection, schedule: Q01DX005 (ip), vehicle: Klucel (hydroxypropylcellulose) (HPC).
[5] abbreviates: dose: 100.0 mg/kg/injection, schedule: Q01DX005 (ip), vehicle: Klucel (hydroxypropylcellulose) (HPC).
Setting [6] is: dose: 100.0 mg/kg/injection, schedule: Q04DX003 (ip), vehicle: saline with Tween-80.
The mark [7] stands for this setting: dose: 200.0 mg/kg/injection, schedule: Q01DX005 (ip), vehicle: Klucel (hydroxypropylcellulose) (HPC).
[8] abbreviates: dose: 200.0 mg/kg/injection, schedule: Q04DX003 (ip), vehicle: saline with Tween-80.
[9] abbreviates: dose: 400.0 mg/kg/injection, schedule: Q04DX003 (ip), vehicle: saline with Tween-80.
The mark [10] stands for this setting: dose: 50.0 mg/kg/injection, schedule: Q01DX005 (ip), vehicle: saline with Tween-80.
Where [11] appears, read: dose: 25.0 mg/kg/injection, schedule: Q01DX005 (ip), vehicle: Klucel (hydroxypropylcellulose) (HPC).
[12] abbreviates: dose: 60.0 mg/kg/injection, schedule: Q01DX005 (ip), vehicle: saline with Tween-80.
[13] abbreviates: dose: 120.0 mg/kg/injection, schedule: Q01DX005 (ip), vehicle: saline with Tween-80.
[14] abbreviates: dose: 240.0 mg/kg/injection, schedule: Q01DX005 (ip), vehicle: saline with Tween-80.
The mark [15] stands for this setting: dose: 100.0 mg/kg/injection, schedule: Q01DX001 (ip), vehicle: saline.
Where [16] appears, read: dose: 200.0 mg/kg/injection, schedule: Q01DX001 (ip), vehicle: saline.
The mark [17] stands for this setting: dose: 400.0 mg/kg/injection, schedule: Q01DX001 (ip), vehicle: saline.
[18] abbreviates: dose: 100.0 mg/kg/injection, schedule: Q01DX005 (ip), vehicle: saline with Tween-80.
The mark [19] stands for this setting: dose: 200.0 mg/kg/injection, schedule: Q01DX005 (ip), vehicle: saline with Tween-80.

`CCCCCCCC(=O)C(=O)c1ccc(O)c(C)c1O`: the T/C is, setting by setting: under setting [1], 109 % of control; under setting [2], 102 % of control; under setting [3], 106 % of control.

Consider `COc1ccc(C2CC(c3ccccc3)=Nc3ccccc3S2)cc1` (configuration not stated), for which the T/C runs as follows: under setting [1], 101 % of control; under setting [2], 108 % of control; under setting [3], 108 % of control.

On to `C#CCOc1c(Cl)cc(Cl)c2ccccc12`, for which the T/C is, setting by setting: (dose: 100.0 mg/kg/injection, schedule: Q04DX003 (ip), vehicle: Klucel (hydroxypropylcellulose) (HPC)) 100 % of control; (dose: 200.0 mg/kg/injection, schedule: Q04DX003 (ip), vehicle: Klucel (hydroxypropylcellulose) (HPC)) 93 % of control; (dose: 400.0 mg/kg/injection, schedule: Q04DX003 (ip), vehicle: Klucel (hydroxypropylcellulose) (HPC)) 93 % of control.

Regarding `CCOC(=O)c1c(C)[nH]oc1=O`, the T/C is, setting by setting: (dose: 25.0 mg/kg/injection, schedule: Q01DX009 (ip), vehicle: saline sonified) 109 % of control; (dose: 50.0 mg/kg/injection, schedule: Q01DX009 (ip), vehicle: saline sonified) 100 % of control; (dose: 100.0 mg/kg/injection, schedule: Q01DX009 (ip), vehicle: saline sonified) 100 % of control.

On to `Cn1c2c(c(=O)c3c4[nH]c5c(c(=O)c4ccc31)CCCC5)CCCC2`, for which the T/C under setting [4] was 108 % of control; the T/C (dose: 50.0 mg/kg/injection, schedule: Q04DX003 (ip), vehicle: saline with Tween-80) is 103 % of control; the T/C under setting [5] is 101 % of control; the T/C under setting [6] was 103 % of control and 96 % of control; the T/C under setting [7] is 94 % of control; the T/C under setting [8] is 99 % of control. In addition, the T/C under setting [9] is 100 % of control and 94 % of control.

As to `CN(C)C(=S)SSC(=S)N(C)C`, the T/C by setting is: (dose: 12.5 mg/kg/injection, schedule: Q01DX009 (ip), vehicle: Klucel (hydroxypropylcellulose) (HPC)) 119 % of control; (dose: 25.0 mg/kg/injection, schedule: Q01DX009 (ip), vehicle: Klucel (hydroxypropylcellulose) (HPC)) 115 % of control; under setting [1], 101 % of control and 117 % of control; under setting [2], 118 % of control and 90 % of control.

Turning to `O=C1NCCCCC1(Cl)Cl`, the T/C by setting is: (dose: 12.5 mg/kg/injection, schedule: Q01DX005 (ip), vehicle: saline with Tween-80) 99 % of control; (dose: 25.0 mg/kg/injection, schedule: Q01DX005 (ip), vehicle: saline with Tween-80) 101 % of control; under setting [10], 99 % of control and 103 % of control.

Take `CCC1=CCC2C(=O)C3CC(CC)=CCC3C(=O)C2C1` (configuration not stated): the T/C was 97 % of control (dose: 12.5 mg/kg/injection, schedule: Q01DX005 (ip), vehicle: Klucel (hydroxypropylcellulose) (HPC)); 92 % of control under setting [11]; 87 % of control and 88 % of control under setting [4].

For the compound `Cc1cc(Cl)n[nH]1`, the T/C was 108 % of control (dose: 6.25 mg/kg/injection, schedule: Q01DX009 (ip), vehicle: saline with Tween-80); 108 % of control (dose: 12.0 mg/kg/injection, schedule: Q01DX009 (ip), vehicle: saline with Tween-80); 106 % of control (dose: 25.0 mg/kg/injection, schedule: Q01DX009 (ip), vehicle: saline with Tween-80).

Regarding `NC(=NCc1ccccc1)c1ccc(N=C(N)c2ccc(C(N)=Nc3ccc(C(N)=NCc4ccccc4)cc3)cc2)cc1`, the T/C is 118 % of control (dose: 5.0 mg/kg/injection, schedule: Q01DX009 (ip), vehicle: saline sonified); 109 % of control (dose: 6.6 mg/kg/injection, schedule: Q01DX009 (ip), vehicle: saline); 122 % of control (dose: 10.0 mg/kg/injection, schedule: Q01DX009 (ip), vehicle: saline); 104 % of control (dose: 10.0 mg/kg/injection, schedule: Q04DX003 (ip), vehicle: saline with Tween-80); 95 % of control (dose: 20.0 mg/kg/injection, schedule: Q04DX003 (ip), vehicle: saline with Tween-80).

Take `COc1cc(C2C3=C(CCC3)Oc3cc4c(cc32)OCO4)cc(OC)c1OC` (configuration not stated): the T/C under setting [12] was 91 % of control, the T/C under setting [13] was 86 % of control and the T/C under setting [14] was 86 % of control.

Take `CCOP(=O)(OCC)SCSC(C)C`: the T/C is 102 % of control (dose: 0.04 mg/kg/injection, schedule: Q01DX009 (ip), vehicle: Klucel (hydroxypropylcellulose) (HPC)); 102 % of control (dose: 0.09 mg/kg/injection, schedule: Q01DX009 (ip), vehicle: Klucel (hydroxypropylcellulose) (HPC)); 108 % of control (dose: 0.19 mg/kg/injection, schedule: Q01DX009 (ip), vehicle: Klucel (hydroxypropylcellulose) (HPC)).

As to `CCOP(=O)(Nc1ccc(C)cc1)OCC`, the T/C under setting [15] was 104 % of control, the T/C under setting [16] is 109 % of control and the T/C under setting [17] was 105 % of control.

As to `O=C(NC[N+]12CCO[B-]1(c1cccc(Cl)c1)OCC2)c1ccccc1O` (configuration not stated), the T/C by setting is: under setting [4], 104 % of control; under setting [5], 104 % of control; under setting [7], 96 % of control.

On to `CCOC(=O)c1cnn(CC(OCC)OCC)c1N`, for which the T/C is 102 % of control (dose: 100.0 mg/kg/injection, schedule: Q01DX001 (ip), vehicle: saline with Tween-80); 108 % of control (dose: 200.0 mg/kg/injection, schedule: Q01DX001 (ip), vehicle: saline with Tween-80); 109 % of control (dose: 400.0 mg/kg/injection, schedule: Q01DX001 (ip), vehicle: saline with Tween-80).

Turning to `COC(=O)C1(c2ccc(OC)cc2)NC(c2ccccc2)C2C(=O)N(c3ccc(OC)cc3)C(=O)C21` (configuration not stated), the T/C runs as follows: under setting [12], 95 % of control; under setting [13], 96 % of control; under setting [14], 89 % of control.

Take `CC(C)OCc1cn[nH]n1`: the T/C reads like this: under setting [12], 100 % of control; under setting [13], 97 % of control; under setting [14], 103 % of control.

`OC1c2ccccc2-c2nc3ccccc3cc21` (configuration not stated): the T/C is, setting by setting: under setting [4], 110 % of control and 92 % of control; under setting [5], 102 % of control and 86 % of control; under setting [7], 107 % of control.

In the case of `CCCCCN(CCCCC)CC(O)CN1CCCc2ccccc21` (configuration not stated), the T/C was 102 % of control under setting [10], 111 % of control under setting [18] and 112 % of control under setting [19].

As to `CC1C(c2ccccc2)N(C)C(c2ccccc2)C(C)C1(O)c1ccccc1` (configuration not stated), the T/C runs as follows: under setting [10], 97 % of control; under setting [18], 94 % of control; under setting [19], 94 % of control.

Consider `COC(=O)C1=CN(C(C)=O)C=C(C(=O)OC)C1c1ccccc1`, for which the T/C is, setting by setting: under setting [10], 102 % of control; under setting [18], 93 % of control; under setting [19], 92 % of control.

Turning to `OCCCN1CCCCC1CO` (configuration not stated), the T/C runs as follows: (dose: 50.0 mg/kg/injection, schedule: Q01DX009 (ip), vehicle: saline with Tween-80) 116 % of control; (dose: 200.0 mg/kg/injection, schedule: Q01DX009 (ip), vehicle: saline with Tween-80) 150 % of control.

For the compound `CC1(O)Cc2ccc3c(c2C(=O)C1O)C(=O)c1cccc(O)c1C3=O` (configuration not stated), the T/C runs as follows: (dose: 3.12 mg/kg/injection, schedule: Q01DX005 (ip), vehicle: distilled water + Tween-80 + alcohol) 98 % of control; (dose: 6.25 mg/kg/injection, schedule: Q01DX005 (ip), vehicle: distilled water + Tween-80 + alcohol) 100 % of control; (dose: 12.5 mg/kg/injection, schedule: Q01DX005 (ip), vehicle: distilled water + Tween-80 + alcohol) 100 % of control; (dose: 25.0 mg/kg/injection, schedule: Q01DX005 (ip), vehicle: distilled water + Tween-80 + alcohol) 100 % of control.

Consider `CC(=O)NC(CC(=O)O)C(=O)O` (configuration not stated), for which the T/C runs as follows: under setting [15], 106 % of control; under setting [16], 100 % of control; under setting [17], 97 % of control.

For the compound `CCCCCC(Cn1ccnc1)c1ccc(Cl)cc1Cl` (configuration not stated), the T/C reads like this: under setting [6], 99 % of control; under setting [8], 94 % of control; under setting [9], 89 % of control.

Consider `O=c1c2c([nH]c3ccc4[nH]c5c(c(=O)c4c13)CCCC5)CCCC2`, for which the T/C is, setting by setting: under setting [6], 94 % of control; under setting [8], 91 % of control; under setting [9], 87 % of control.

For `Cc1ccc(/C=N\NC(=O)NN)cc1`, the T/C runs as follows: under setting [11], 97 % of control; under setting [4], 102 % of control.
